# Laboratory results published in ChEMBL document CHEMBL1201862, “PubChem BioAssay data set” (2004).
#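 Protocol summary: plate cells (96-well), add compound at 5 concentrations, incubate 48 h, interpolate endpoints linearly. Abbreviation: GI50, concentration required for 50% inhibition of growth.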 The source made the active and inactive calls. Cut-off read from the data, not from the text of the source: active = GI50 up to about 1.1 µM and inactive = higher.
# Columns and labels:
# Assay in all cases: DTP human tumour cell line panel, 48 h
# MDA-MB-435 = tested on: MDA-MB-435
# HOP-92 = tested on: HOP-92
# 786-0 = tested on: 786-0
# SK-MEL-28 = tested on: SK-MEL-28
# OVCAR-4 = tested on: OVCAR-4
# HOP-62 = tested on: HOP-62
# UACC-257 = tested on: UACC-257
# HCT-15 = tested on: HCT-15
# NCI-H460 = tested on: NCI-H460
# NCI/ADR-RES = tested on: NCI/ADR-RES
# HL-60 = tested on: HL-60
# SR = tested on: SR
# EKVX = tested on: EKVX
# RPMI-8226 = tested on: RPMI-8226
# SN12C = tested on: SN12C
# SK-OV-3 = tested on: SK-OV-3
# OVCAR-8 = tested on: OVCAR-8
# M14 = tested on: M14
# CAKI-1 = tested on: CAKI-1
# T47D = tested on: T47D
# COLO 205 = tested on: COLO 205
# IGROV-1 = tested on: IGROV-1
# Hs-578T = tested on: Hs-578T
# OVCAR-3 = tested on: OVCAR-3
# SW-620 = tested on: SW-620
# CCRF-CEM = tested on: CCRF-CEM
# SF-539 = tested on: SF-539
# OVCAR-5 = tested on: OVCAR-5
# MDA-N = tested on: MDA-N
# SNB-19 = tested on: SNB-19
# K562 = tested on: K562
# SNB-75 = tested on: SNB-75
# MOLT-4 = tested on: MOLT-4
# SF-268 = tested on: SF-268
# UACC-62 = tested on: UACC-62
# KM12 = tested on: KM12
# SF-295 = tested on: SF-295
# RXF 393 = tested on: RXF 393
# SK-MEL-2 = tested on: SK-MEL-2
# A549 = tested on: A549
# HCC 2998 = tested on: HCC 2998
# HT-29 = tested on: HT-29
# LOX IMVI = tested on: LOX IMVI
# TK-10 = tested on: TK-10
# A498 = tested on: A498
# MCF7 = tested on: MCF7
# NCI-H226 = tested on: NCI-H226
# DU-145 = tested on: DU-145
# UO-31 = tested on: UO-31
# BT-549 = tested on: BT-549
# U-251 = tested on: U-251
# ACHN = tested on: ACHN
# HCT-116 = tested on: HCT-116
# NCI-H23 = tested on: NCI-H23
# MDA-MB-231 = tested on: MDA-MB-231
# PC-3 = tested on: PC-3
# NCI-H522 = tested on: NCI-H522
# SK-MEL-5 = tested on: SK-MEL-5
# Malme-3M = tested on: Malme-3M
structure (smiles),measurement,setting,value
COc1ccc(/C=C2\CCS(=O)(=O)c3ccccc3C2=O)cc1,GI50,MDA-MB-435,26.9 µM (inactive)
same,GI50,HOP-92,36 µM (inactive)
same,GI50,786-0,18.3 µM (inactive)
same,GI50,SK-MEL-28,26.9 µM (inactive)
same,GI50,OVCAR-4,24.5 µM (inactive)
same,GI50,HOP-62,36.3 µM (inactive)
same,GI50,UACC-257,23.3 µM (inactive)
same,GI50,HCT-15,19.6 µM
same,GI50,NCI-H460,21.7 µM (inactive)
same,GI50,NCI/ADR-RES,20.1 µM (inactive)
same,GI50,HL-60,21.5 µM (inactive)
same,GI50,SR,8.55 µM (inactive)
same,GI50,EKVX,19.1 µM (inactive)
same,GI50,RPMI-8226,19.3 µM (inactive)
same,GI50,SN12C,28.3 µM (inactive)
same,GI50,SK-OV-3,38.3 µM (inactive)
same,GI50,OVCAR-8,22.2 µM (inactive)
same,GI50,M14,34.4 µM (inactive)
same,GI50,CAKI-1,26.5 µM (inactive)
same,GI50,T47D,22.7 µM (inactive)
same,GI50,COLO 205,15.2 µM (inactive)
same,GI50,IGROV-1,18.2 µM (inactive)
same,GI50,Hs-578T,31.3 µM (inactive)
same,GI50,OVCAR-3,30 µM (inactive)
same,GI50,SW-620,20.9 µM (inactive)
same,GI50,CCRF-CEM,20 µM (inactive)
same,GI50,SF-539,21.1 µM (inactive)
same,GI50,OVCAR-5,26.7 µM (inactive)
same,GI50,MDA-N,31.4 µM (inactive)
same,GI50,SNB-19,24.5 µM (inactive)
same,GI50,K562,30.1 µM (inactive)
same,GI50,SNB-75,33.3 µM (inactive)
same,GI50,MOLT-4,18.1 µM (inactive)
same,GI50,SF-268,30.3 µM (inactive)
same,GI50,UACC-62,20 µM (inactive)
same,GI50,KM12,16.6 µM (inactive)
same,GI50,SF-295,35 µM (inactive)
same,GI50,RXF 393,22.6 µM (inactive)
same,GI50,SK-MEL-2,31.4 µM (inactive)
same,GI50,A549,39.4 µM (inactive)
same,GI50,HCC 2998,20 µM (inactive)
same,GI50,HT-29,18.8 µM (inactive)
same,GI50,LOX IMVI,20.4 µM (inactive)
same,GI50,TK-10,23.2 µM (inactive)
same,GI50,A498,20.9 µM (inactive)
same,GI50,MCF7,35.4 µM (inactive)
same,GI50,NCI-H226,20.2 µM (inactive)
same,GI50,DU-145,23.2 µM (inactive)
same,GI50,UO-31,19.7 µM (inactive)
same,GI50,BT-549,31.8 µM (inactive)
same,GI50,U-251,17.8 µM (inactive)
same,GI50,ACHN,24.4 µM (inactive)
same,GI50,HCT-116,17.1 µM (inactive)
same,GI50,NCI-H23,25.7 µM (inactive)
same,GI50,MDA-MB-231,24.6 µM (inactive)
same,GI50,PC-3,27.5 µM (inactive)
COC(=O)c1c(C)nc(C)c(N=O)c1-c1ccccc1C(F)(F)F,GI50,MDA-MB-435,22.3 µM (inactive)
same,GI50,HOP-92,17.3 µM (inactive)
same,GI50,786-0,17.6 µM (inactive)
same,GI50,SK-MEL-28,14.9 µM (inactive)
same,GI50,OVCAR-4,16.1 µM (inactive)
same,GI50,NCI-H522,4.97 µM (inactive)
same,GI50,HOP-62,> 100 µM (inactive)
same,GI50,UACC-257,14 µM (inactive)
same,GI50,HCT-15,20.3 µM
same,GI50,NCI-H460,80.4 µM (inactive)
same,GI50,NCI/ADR-RES,20.6 µM (inactive)
same,GI50,HL-60,8 µM (inactive)
same,GI50,SR,13.7 µM (inactive)
same,GI50,EKVX,99.8 µM (inactive)
same,GI50,RPMI-8226,73.8 µM (inactive)
same,GI50,SN12C,21.3 µM (inactive)
same,GI50,SK-OV-3,> 100 µM (inactive)
same,GI50,OVCAR-8,17.9 µM (inactive)
same,GI50,M14,20 µM (inactive)
same,GI50,CAKI-1,11 µM (inactive)
same,GI50,T47D,17.3 µM (inactive)
same,GI50,COLO 205,31.9 µM (inactive)
same,GI50,IGROV-1,17.7 µM (inactive)
same,GI50,Hs-578T,19 µM (inactive)
same,GI50,OVCAR-3,17.3 µM (inactive)
same,GI50,SW-620,15.5 µM (inactive)
same,GI50,CCRF-CEM,6 µM (inactive)
same,GI50,SF-539,20.7 µM (inactive)
same,GI50,OVCAR-5,21 µM (inactive)
same,GI50,MDA-N,19.7 µM (inactive)
same,GI50,SNB-19,> 100 µM (inactive)
same,GI50,K562,8.41 µM (inactive)
same,GI50,MOLT-4,6.25 µM (inactive)
same,GI50,SF-268,15.8 µM (inactive)
same,GI50,UACC-62,27.6 µM (inactive)
same,GI50,KM12,19.1 µM (inactive)
same,GI50,SF-295,> 100 µM (inactive)
same,GI50,RXF 393,15.3 µM (inactive)
same,GI50,SK-MEL-2,36.1 µM (inactive)
same,GI50,SK-MEL-5,26.5 µM (inactive)
same,GI50,A549,> 100 µM (inactive)
same,GI50,HCC 2998,79.6 µM (inactive)
same,GI50,HT-29,15.7 µM (inactive)
same,GI50,LOX IMVI,14.7 µM (inactive)
same,GI50,TK-10,13.8 µM (inactive)
same,GI50,A498,> 100 µM (inactive)
same,GI50,MCF7,20.2 µM (inactive)
same,GI50,NCI-H226,19.4 µM (inactive)
same,GI50,DU-145,> 100 µM (inactive)
same,GI50,UO-31,14.4 µM (inactive)
same,GI50,BT-549,18.5 µM (inactive)
same,GI50,U-251,17.5 µM (inactive)
same,GI50,ACHN,32.9 µM (inactive)
same,GI50,HCT-116,16.4 µM (inactive)
same,GI50,NCI-H23,20.5 µM (inactive)
same,GI50,Malme-3M,15.8 µM (inactive)
same,GI50,MDA-MB-231,18 µM (inactive)
same,GI50,PC-3,34.2 µM (inactive)
O=C(Nc1ccccc1)c1cc(S(=O)(=O)n2ccnc2O)c(S)cc1Cl,GI50,MDA-MB-435,> 100 µM (inactive)
same,GI50,HOP-92,> 100 µM (inactive)
same,GI50,786-0,> 100 µM (inactive)
same,GI50,SK-MEL-28,> 100 µM (inactive)
same,GI50,NCI-H522,> 100 µM (inactive)
same,GI50,HOP-62,> 100 µM (inactive)
same,GI50,UACC-257,> 100 µM (inactive)
same,GI50,HCT-15,> 100 µM
same,GI50,NCI-H460,> 100 µM (inactive)
same,GI50,NCI/ADR-RES,> 100 µM (inactive)
same,GI50,HL-60,> 100 µM (inactive)
same,GI50,SR,> 100 µM (inactive)
same,GI50,EKVX,> 100 µM (inactive)
same,GI50,RPMI-8226,> 100 µM (inactive)
same,GI50,SN12C,> 100 µM (inactive)
same,GI50,OVCAR-8,> 100 µM (inactive)
same,GI50,M14,> 100 µM (inactive)
same,GI50,CAKI-1,> 100 µM (inactive)
same,GI50,T47D,> 100 µM (inactive)
same,GI50,COLO 205,> 100 µM (inactive)
same,GI50,IGROV-1,> 100 µM (inactive)
same,GI50,Hs-578T,> 100 µM (inactive)
same,GI50,OVCAR-3,> 100 µM (inactive)
same,GI50,SW-620,> 100 µM (inactive)
same,GI50,CCRF-CEM,> 100 µM (inactive)
same,GI50,SF-539,> 100 µM (inactive)
same,GI50,OVCAR-5,> 100 µM (inactive)
same,GI50,MDA-N,> 100 µM (inactive)
same,GI50,SNB-19,> 100 µM (inactive)
same,GI50,K562,> 100 µM (inactive)
same,GI50,SNB-75,28.8 µM (inactive)
same,GI50,MOLT-4,> 100 µM (inactive)
same,GI50,SF-268,> 100 µM (inactive)
same,GI50,UACC-62,> 100 µM (inactive)
same,GI50,KM12,> 100 µM (inactive)
same,GI50,SF-295,> 100 µM (inactive)
same,GI50,RXF 393,> 100 µM (inactive)
same,GI50,SK-MEL-2,> 100 µM (inactive)
same,GI50,SK-MEL-5,> 100 µM (inactive)
same,GI50,A549,> 100 µM (inactive)
same,GI50,HCC 2998,> 100 µM (inactive)
same,GI50,HT-29,> 100 µM (inactive)
same,GI50,LOX IMVI,> 100 µM (inactive)
same,GI50,TK-10,> 100 µM (inactive)
same,GI50,A498,> 100 µM (inactive)
same,GI50,MCF7,> 100 µM (inactive)
same,GI50,NCI-H226,> 100 µM (inactive)
same,GI50,DU-145,> 100 µM (inactive)
same,GI50,UO-31,> 100 µM (inactive)
same,GI50,BT-549,> 100 µM (inactive)
same,GI50,U-251,> 100 µM (inactive)
same,GI50,ACHN,> 100 µM (inactive)
same,GI50,HCT-116,> 100 µM (inactive)
same,GI50,NCI-H23,> 100 µM (inactive)
same,GI50,MDA-MB-231,> 100 µM (inactive)
same,GI50,PC-3,> 100 µM (inactive)
